Data from publication PMC9954146, “Anti-Leukaemic Activity of Rilpivirine Is Mediated by Aurora A Kinase Inhibition” (Cancers, 2023).

Tests used:
Experiment in all cases: Kinase panel
Type in all cases: biochemical
Details in all cases: read-out: % Residual Activity
[1] = target: T1, PRK1(h) (Homo sapiens, UniProt Q16512)
T1 construct: purchased Eurofins (KinaseProfiler)
Description: (§1) Kinome-wide selectivity of rilpivirine was measured using the kinase screening and profiling service of Eurofins Scientific (Le bois l’Evêque 86600. Celle-Lévescault, France) and Ki values were determined using radioisotope-based assays by Reaction Biology Corporation (Malvern, PA, USA). The experimental details of Eurofin Scientific and Reaction Biology services for relevant assays are available at https://www.eurofinsdiscoveryservices.com/services/in-Vitro-assays/kinases/kinase-profiler (accessed on 7 July 2021) and https://www.reactionbiology.com (accessed on 7 July 2021), respectively. Ki values were estimated from the corresponding IC50 values using the Cheng–Prusoff equation [21] and the Km (ATP) of individual kinase was used for IC50 determination.

[2] = target: T2, MRCKα(h) (Homo sapiens, UniProt Q5VT25)
T2 construct: purchased Eurofins (KinaseProfiler)
Description: as §1

[3] = target: T3, Met(h) (Homo sapiens, UniProt P08581)
T3 construct: purchased Eurofins (KinaseProfiler)
Description: as §1

[4] = target: T4, Rsk2(h) (Homo sapiens, UniProt P51812)
T4 construct: purchased Eurofins (KinaseProfiler)
Description: as §1

[5] = target: T5, cKit(h) (Homo sapiens, UniProt P10721)
T5 construct: purchased Eurofins (KinaseProfiler)
Description: as §1

[6] = target: T6, ALK1(h) (Homo sapiens, UniProt P37023)
T6 construct: purchased Eurofins (KinaseProfiler)
Description: as §1

[7] = target: T7, AAK1(h) (Homo sapiens, UniProt Q2M2I8)
T7 construct: purchased Eurofins (KinaseProfiler)
T7 sequence (Q2M2I8 whole entry): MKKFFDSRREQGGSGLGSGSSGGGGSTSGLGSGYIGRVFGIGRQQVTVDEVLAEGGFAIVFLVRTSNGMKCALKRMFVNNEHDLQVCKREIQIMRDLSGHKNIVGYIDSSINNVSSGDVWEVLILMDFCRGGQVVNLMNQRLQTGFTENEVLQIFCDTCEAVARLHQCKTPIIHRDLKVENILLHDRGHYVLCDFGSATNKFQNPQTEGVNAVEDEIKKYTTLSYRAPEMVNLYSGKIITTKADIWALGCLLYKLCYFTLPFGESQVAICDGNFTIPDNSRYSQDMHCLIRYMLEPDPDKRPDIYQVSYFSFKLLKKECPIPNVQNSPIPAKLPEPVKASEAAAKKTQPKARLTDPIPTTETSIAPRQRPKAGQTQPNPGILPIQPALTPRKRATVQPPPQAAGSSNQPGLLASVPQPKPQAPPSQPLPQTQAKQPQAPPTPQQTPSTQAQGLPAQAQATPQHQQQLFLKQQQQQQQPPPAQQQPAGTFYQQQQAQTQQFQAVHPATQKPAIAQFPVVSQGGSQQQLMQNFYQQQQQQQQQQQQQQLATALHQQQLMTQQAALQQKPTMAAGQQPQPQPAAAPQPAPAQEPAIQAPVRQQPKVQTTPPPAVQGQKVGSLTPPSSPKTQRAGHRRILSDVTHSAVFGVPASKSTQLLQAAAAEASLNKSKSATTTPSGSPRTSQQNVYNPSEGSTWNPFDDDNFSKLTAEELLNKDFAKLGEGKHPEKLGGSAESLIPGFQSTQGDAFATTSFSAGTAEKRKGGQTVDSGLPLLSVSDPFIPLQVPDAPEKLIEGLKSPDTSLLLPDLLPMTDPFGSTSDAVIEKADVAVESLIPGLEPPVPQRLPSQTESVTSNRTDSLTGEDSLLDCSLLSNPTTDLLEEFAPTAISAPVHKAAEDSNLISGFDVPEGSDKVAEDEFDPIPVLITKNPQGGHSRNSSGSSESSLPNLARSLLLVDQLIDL
Description: as §1

[8] = target: T8, CLK3(h) (Homo sapiens, UniProt P49761)
T8 construct: purchased Eurofins (KinaseProfiler)
Description: as §1

[9] = target: T9, CaMKIIβ(h) (Homo sapiens, UniProt Q13554)
T9 construct: purchased Eurofins (KinaseProfiler)
Description: as §1

[10] = target: T10, PKA(h) (Homo sapiens, UniProt P17612)
T10 construct: purchased Eurofins (KinaseProfiler)
Description: as §1

[11] = target: T11, Fes(h) (Homo sapiens, UniProt P07332)
T11 construct: purchased Eurofins (KinaseProfiler)
T11 sequence (P07332 whole entry): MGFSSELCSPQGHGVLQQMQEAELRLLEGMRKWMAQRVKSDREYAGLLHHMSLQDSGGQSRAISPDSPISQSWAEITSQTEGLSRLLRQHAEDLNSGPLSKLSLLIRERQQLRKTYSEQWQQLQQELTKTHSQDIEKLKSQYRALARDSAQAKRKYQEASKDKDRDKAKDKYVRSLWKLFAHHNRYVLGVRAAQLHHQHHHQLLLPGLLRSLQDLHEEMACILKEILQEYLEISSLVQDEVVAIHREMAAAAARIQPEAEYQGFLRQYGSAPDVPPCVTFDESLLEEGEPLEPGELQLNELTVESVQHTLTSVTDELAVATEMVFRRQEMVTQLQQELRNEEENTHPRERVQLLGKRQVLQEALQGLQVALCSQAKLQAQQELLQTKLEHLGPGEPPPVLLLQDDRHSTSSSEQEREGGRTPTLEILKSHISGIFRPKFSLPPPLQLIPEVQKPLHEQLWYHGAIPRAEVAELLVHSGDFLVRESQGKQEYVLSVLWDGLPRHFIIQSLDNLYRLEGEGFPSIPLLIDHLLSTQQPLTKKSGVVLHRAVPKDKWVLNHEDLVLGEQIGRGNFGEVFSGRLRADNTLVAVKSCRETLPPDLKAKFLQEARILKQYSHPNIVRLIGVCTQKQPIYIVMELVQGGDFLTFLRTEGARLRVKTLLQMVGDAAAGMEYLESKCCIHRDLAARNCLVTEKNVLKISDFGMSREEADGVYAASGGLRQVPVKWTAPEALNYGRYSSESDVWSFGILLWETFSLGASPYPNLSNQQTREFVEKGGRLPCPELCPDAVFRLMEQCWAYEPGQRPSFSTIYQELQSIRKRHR
Description: as §1

[12] = target: T12, cKit(V560G)(h) (Homo sapiens, UniProt P10721, V560G)
T12 construct: purchased Eurofins (KinaseProfiler)
Description: as §1

[13] = target: T13, PI3 Kinase (p120g)(h) (Homo sapiens, UniProt P48736)
T13 construct: purchased Eurofins (KinaseProfiler)
Description: as §1

[14] = target: T14, CDKL2(h) (Homo sapiens, UniProt Q92772)
T14 construct: purchased Eurofins (KinaseProfiler)
Description: as §1

[15] = target: T15, Flt3(D835Y)(h) (Homo sapiens, UniProt P36888, D835Y)
T15 construct: purchased Eurofins (KinaseProfiler)
Description: as §1

[16] = target: T16, FGFR3(h) (Homo sapiens, UniProt P22607)
T16 construct: purchased Eurofins (KinaseProfiler)
T16 sequence (P22607 23-806): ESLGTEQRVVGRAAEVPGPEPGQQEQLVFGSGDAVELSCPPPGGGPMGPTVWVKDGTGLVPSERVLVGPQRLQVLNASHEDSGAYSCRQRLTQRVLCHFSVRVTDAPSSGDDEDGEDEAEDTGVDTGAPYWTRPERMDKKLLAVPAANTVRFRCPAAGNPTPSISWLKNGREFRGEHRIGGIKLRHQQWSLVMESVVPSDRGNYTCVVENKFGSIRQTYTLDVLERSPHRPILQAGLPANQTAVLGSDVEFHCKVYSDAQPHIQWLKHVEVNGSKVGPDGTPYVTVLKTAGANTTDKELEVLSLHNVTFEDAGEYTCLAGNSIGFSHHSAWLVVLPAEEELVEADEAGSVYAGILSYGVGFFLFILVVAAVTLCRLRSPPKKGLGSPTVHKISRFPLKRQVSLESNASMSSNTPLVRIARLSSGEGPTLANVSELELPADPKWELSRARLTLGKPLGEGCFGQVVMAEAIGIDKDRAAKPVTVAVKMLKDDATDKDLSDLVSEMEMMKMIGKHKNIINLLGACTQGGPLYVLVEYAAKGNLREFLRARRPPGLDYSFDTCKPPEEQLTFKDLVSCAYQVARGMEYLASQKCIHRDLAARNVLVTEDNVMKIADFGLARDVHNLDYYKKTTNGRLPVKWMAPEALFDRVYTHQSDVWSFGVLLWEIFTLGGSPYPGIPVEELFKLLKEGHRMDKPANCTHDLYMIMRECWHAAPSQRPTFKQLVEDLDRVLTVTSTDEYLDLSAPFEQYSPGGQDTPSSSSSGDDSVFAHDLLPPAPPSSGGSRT
Description: as §1

[17] = target: T17, NLK(h) (Homo sapiens, UniProt Q9UBE8)
T17 construct: purchased Eurofins (KinaseProfiler)
Description: as §1

[18] = target: T18, TTBK1(h) (Homo sapiens, UniProt Q5TCY1)
T18 construct: purchased Eurofins (KinaseProfiler)
Description: as §1

[19] = target: T19, PASK(h) (Homo sapiens, UniProt Q96RG2)
T19 construct: purchased Eurofins (KinaseProfiler)
T19 sequence (Q96RG2 whole entry): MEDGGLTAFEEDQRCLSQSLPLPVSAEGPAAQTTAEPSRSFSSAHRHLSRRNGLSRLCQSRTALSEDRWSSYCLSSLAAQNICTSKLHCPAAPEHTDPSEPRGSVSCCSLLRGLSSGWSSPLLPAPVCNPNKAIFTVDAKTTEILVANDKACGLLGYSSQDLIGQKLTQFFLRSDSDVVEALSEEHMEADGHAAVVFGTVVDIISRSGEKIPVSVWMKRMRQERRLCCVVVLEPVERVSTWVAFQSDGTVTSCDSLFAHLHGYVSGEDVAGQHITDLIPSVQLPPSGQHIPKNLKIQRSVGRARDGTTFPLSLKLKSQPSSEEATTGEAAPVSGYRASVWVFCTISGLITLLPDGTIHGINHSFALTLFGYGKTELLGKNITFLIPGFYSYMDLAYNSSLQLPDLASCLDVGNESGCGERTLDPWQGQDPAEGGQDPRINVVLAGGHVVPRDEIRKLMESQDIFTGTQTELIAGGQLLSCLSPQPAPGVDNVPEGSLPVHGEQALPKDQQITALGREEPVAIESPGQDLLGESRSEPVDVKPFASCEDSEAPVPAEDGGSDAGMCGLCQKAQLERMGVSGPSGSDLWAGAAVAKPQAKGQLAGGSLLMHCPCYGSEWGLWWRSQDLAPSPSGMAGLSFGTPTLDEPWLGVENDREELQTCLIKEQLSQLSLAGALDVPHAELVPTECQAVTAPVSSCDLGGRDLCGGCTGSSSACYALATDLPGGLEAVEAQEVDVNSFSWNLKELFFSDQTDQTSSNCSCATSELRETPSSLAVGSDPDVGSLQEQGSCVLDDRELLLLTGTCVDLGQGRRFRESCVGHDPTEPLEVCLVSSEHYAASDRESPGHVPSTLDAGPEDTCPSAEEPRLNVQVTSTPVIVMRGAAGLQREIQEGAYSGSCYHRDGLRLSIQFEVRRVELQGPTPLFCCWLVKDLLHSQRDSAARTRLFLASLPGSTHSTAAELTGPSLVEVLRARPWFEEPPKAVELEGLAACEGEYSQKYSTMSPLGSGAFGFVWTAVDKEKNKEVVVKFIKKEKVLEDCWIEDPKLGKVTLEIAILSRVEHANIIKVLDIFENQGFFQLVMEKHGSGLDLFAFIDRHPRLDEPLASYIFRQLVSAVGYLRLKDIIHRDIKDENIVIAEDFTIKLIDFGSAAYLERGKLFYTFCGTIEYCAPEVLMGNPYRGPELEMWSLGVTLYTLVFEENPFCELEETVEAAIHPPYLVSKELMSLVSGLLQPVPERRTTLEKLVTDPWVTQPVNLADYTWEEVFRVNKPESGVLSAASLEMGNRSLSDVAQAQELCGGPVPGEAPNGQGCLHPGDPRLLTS
Description: as §1

[20] = target: T20, MARK3(h) (Homo sapiens, UniProt P27448)
T20 construct: purchased Eurofins (KinaseProfiler)
Description: as §1

[21] = target: T21, MYLK2(h) (Homo sapiens, UniProt Q9H1R3)
T21 construct: purchased Eurofins (KinaseProfiler)
Description: as §1

[22] = target: T22, HIPK1(h) (Homo sapiens, UniProt Q86Z02)
T22 construct: purchased Eurofins (KinaseProfiler)
Description: as §1

[23] = target: T23, LIMK2(h) (Homo sapiens, UniProt P53671)
T23 construct: purchased Eurofins (KinaseProfiler)
Description: as §1

[24] = target: T24, CLK4(h) (Homo sapiens, UniProt Q9HAZ1)
T24 construct: purchased Eurofins (KinaseProfiler)
Description: as §1

[25] = target: T25, ULK2(h) (Homo sapiens, UniProt Q8IYT8)
T25 construct: purchased Eurofins (KinaseProfiler)
Description: as §1

[26] = target: T26, NEK4(h) (Homo sapiens, UniProt P51957)
T26 construct: purchased Eurofins (KinaseProfiler)
Description: as §1

[27] = target: T27, BrSK2(h) (Homo sapiens, UniProt Q8IWQ3)
T27 construct: purchased Eurofins (KinaseProfiler)
Description: as §1

[28] = target: T28, CK1α(h) (Homo sapiens, UniProt P48729)
T28 construct: purchased Eurofins (KinaseProfiler)
Description: as §1

[29] = target: T29, DMPK(h) (Homo sapiens, UniProt Q09013)
T29 construct: purchased Eurofins (KinaseProfiler)
T29 sequence (Q09013 whole entry): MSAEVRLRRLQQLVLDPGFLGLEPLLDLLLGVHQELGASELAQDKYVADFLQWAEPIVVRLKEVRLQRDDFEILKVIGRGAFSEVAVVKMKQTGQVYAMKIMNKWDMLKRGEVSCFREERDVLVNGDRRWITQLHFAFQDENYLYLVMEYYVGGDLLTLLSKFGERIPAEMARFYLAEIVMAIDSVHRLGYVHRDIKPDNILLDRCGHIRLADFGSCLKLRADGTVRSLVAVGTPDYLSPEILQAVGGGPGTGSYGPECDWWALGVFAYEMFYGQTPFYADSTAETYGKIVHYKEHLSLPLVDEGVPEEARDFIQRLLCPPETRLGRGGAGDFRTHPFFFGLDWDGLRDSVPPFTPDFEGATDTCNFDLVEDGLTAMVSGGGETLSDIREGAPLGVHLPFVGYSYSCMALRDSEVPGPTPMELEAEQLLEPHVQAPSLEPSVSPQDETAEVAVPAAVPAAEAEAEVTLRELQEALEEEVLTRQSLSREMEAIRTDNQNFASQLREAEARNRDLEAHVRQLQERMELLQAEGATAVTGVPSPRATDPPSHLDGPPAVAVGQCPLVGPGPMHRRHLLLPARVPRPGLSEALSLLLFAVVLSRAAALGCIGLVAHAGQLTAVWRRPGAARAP
Description: as §1

[30] = target: T30, HRI(h) (Homo sapiens, UniProt Q9BQI3)
T30 construct: purchased Eurofins (KinaseProfiler)
Description: as §1

[31] = target: T31, Abl(m) (Mus musculus, UniProt P00520)
T31 construct: purchased Eurofins (KinaseProfiler)
Description: as §1

[32] = target: T32, SAPK2a(T106M)(h) (Homo sapiens, UniProt Q16539, T106M)
T32 construct: purchased Eurofins (KinaseProfiler)
T32 sequence (Q16539 whole entry T106M): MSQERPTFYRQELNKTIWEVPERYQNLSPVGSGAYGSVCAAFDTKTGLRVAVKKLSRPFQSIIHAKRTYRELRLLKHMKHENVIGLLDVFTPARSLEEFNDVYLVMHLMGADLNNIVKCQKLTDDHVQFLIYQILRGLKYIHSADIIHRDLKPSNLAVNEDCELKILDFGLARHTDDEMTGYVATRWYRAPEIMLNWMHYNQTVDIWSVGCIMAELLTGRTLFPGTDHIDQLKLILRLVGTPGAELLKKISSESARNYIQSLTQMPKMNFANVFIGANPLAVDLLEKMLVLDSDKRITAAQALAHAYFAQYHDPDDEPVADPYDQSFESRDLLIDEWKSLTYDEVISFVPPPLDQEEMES
Description: as §1

[33] = target: T33, Fms(h) (Homo sapiens, UniProt P07333)
T33 construct: purchased Eurofins (KinaseProfiler)
Description: as §1

[34] = target: T34, ALK2(h) (Homo sapiens, UniProt Q04771)
T34 construct: purchased Eurofins (KinaseProfiler)
Description: as §1

[35] = target: T35, ACK1(h) (Homo sapiens, UniProt Q07912)
T35 construct: purchased Eurofins (KinaseProfiler)
Description: as §1

[36] = target: T36, EphA8(h) (Homo sapiens, UniProt P29322)
T36 construct: purchased Eurofins (KinaseProfiler)
Description: as §1

[37] = target: T37, CHK2(I157T)(h) (Homo sapiens, UniProt O96017, I157T)
T37 construct: purchased Eurofins (KinaseProfiler)
Description: as §1

[38] = target: T38, MAPK1(h) (Homo sapiens, UniProt P27361)
T38 construct: purchased Eurofins (KinaseProfiler)
Description: as §1

[39] = target: T39, Src(1-530)(h) (Homo sapiens, UniProt P12931)
T39 construct: purchased Eurofins (KinaseProfiler)
Description: as §1

## Cc1cc(/C=C/C#N)cc(C)c1Nc1ccnc(Nc2ccc(C#N)cc2)n1 [rilpivirine, (E)-4-((4-((4-(2-cyanoethenyl)-2,6-dimethylphenyl)amino)pyrimidin-2-yl)amino)benzonitrile]
[1]
  remaining activity at 1 µM: 64%
[2]
  remaining activity at 1 µM: 86%
[3]
  remaining activity at 1 µM: 80%
[4]
  remaining activity at 1 µM: 82%
[5]
  remaining activity at 1 µM: 99%
[6]
  remaining activity at 1 µM: 84%
[7]
  remaining activity at 1 µM: 87%
[8]
  remaining activity at 1 µM: 93%
[9]
  remaining activity at 1 µM: 69%
[10]
  remaining activity at 1 µM: 93%
[11]
  remaining activity at 1 µM: 85%
[12]
  remaining activity at 1 µM: 74%
[13]
  remaining activity at 1 µM: 87%
[14]
  remaining activity at 1 µM: 100%
[15]
  remaining activity at 1 µM: 94%
[16]
  remaining activity at 1 µM: 98%
[17]
  remaining activity at 1 µM: 64%
[18]
  remaining activity at 1 µM: 90%
[19]
  remaining activity at 1 µM: 85%
[20]
  remaining activity at 1 µM: 87%
[21]
  remaining activity at 1 µM: 79%
[22]
  remaining activity at 1 µM: 97%
[23]
  remaining activity at 1 µM: 71%
[24]
  remaining activity at 1 µM: 37%
[25]
  remaining activity at 1 µM: 90%
[26]
  remaining activity at 1 µM: 97%
[27]
  remaining activity at 1 µM: 80%
[28]
  remaining activity at 1 µM: 103%
[29]
  remaining activity at 1 µM: 100%
[30]
  remaining activity at 1 µM: 91%
[31]
  remaining activity at 1 µM: 63%
[32]
  remaining activity at 1 µM: 90%
[33]
  remaining activity at 1 µM: 91%
[34]
  remaining activity at 1 µM: 91%
[35]
  remaining activity at 1 µM: 97%
[36]
  remaining activity at 1 µM: 60%
[37]
  remaining activity at 1 µM: 97%
[38]
  remaining activity at 1 µM: 90%
[39]
  remaining activity at 1 µM: 31%
